± gives the standard deviation of the averaged measurements.
Experiments:
Assay in all cases: level (log10 ratio to DMSO vehicle control); higher = higher biomarker level / cell amount than vehicle control
Conditions in all cases: in DMSO
[1] = compound: CNS(=O)(=O)C(F)(F)C(F)(F)C(F)(F)C(F)(F)C(F)(F)C(F)(F)C(F)(F)C(F)(F)F [N-Methylperfluorooctanesulfonamide]
Procedure: (§1)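 BioMAP Diversity Plus panel of 12 human primary cell co-culture systems (3C, 4H, LPS, SAg, BT, BF4T, BE3C, CASM3C, HDF3CGF, KF3CT, MyoF, Mphg). Compounds were added 1 h before stimulation and left for 24 h (MyoF 48 h; BT 72 h for soluble read-outs or 6 d for IgG). Biomarkers were read by ELISA, cytotoxicity by SRB, PBMC viability and proliferation by Alamar Blue. Each well value was divided by the mean of 8 DMSO control wells on the same plate and log10 transformed; duplicate blinded samples were tested at 4 concentrations.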

[2] = compound: O=P(O)(O)CCC(F)(F)C(F)(F)C(F)(F)C(F)(F)C(F)(F)C(F)(F)C(F)(F)C(F)(F)F [((Perfluorooctyl)ethyl)phosphonic acid]
Procedure: as §1

[3] = compound: Cn1cnc([N+](=O)[O-])c1Sc1ncnc2[nH]cnc12 [Azathioprine]
Procedure: as §1

[4] = compound: CC(C)(C)C(=O)CC(=O)C(F)(F)C(F)(F)C(F)(F)F [(Heptafluorobutanoyl)pivaloylmethane]
Procedure: as §1

[5] = compound: O=C(O)CCC(F)(F)C(F)(F)C(F)(F)C(F)(F)C(F)(F)F [2H,2H,3H,3H-Perfluorooctanoic acid]
Procedure: as §1

[6] = compound: FC(F)(F)C(F)(F)C(F)(F)C(F)(F)C(F)(F)C(F)(F)C(F)(F)CCI [1-Iodo-1H,1H,2H,2H-perfluorononane]
Procedure: as §1

Row | Test System | level (log10) ([1]; 6700 nM) | level (log10) ([1]; 20000 nM) | level (log10) ([1]; 60000 nM) | level (log10) ([2]; 6700 nM) | level (log10) ([2]; 20000 nM) | level (log10) ([2]; 60000 nM) | level (log10) ([3]; 1400 nM) | level (log10) ([3]; 4200 nM) | level (log10) ([3]; 13000 nM) | level (log10) ([3]; 38000 nM) | level (log10) ([4]; 6700 nM) | level (log10) ([4]; 20000 nM) | level (log10) ([4]; 60000 nM) | level (log10) ([5]; 6700 nM) | level (log10) ([5]; 20000 nM) | level (log10) ([5]; 60000 nM) | level (log10) ([6]; 6700 nM) | level (log10) ([6]; 20000 nM)
1 | KF3CT:CXCL8/IL-8 | -0.039 ± 0.041 | -0.158 ± 0.037 | -0.106 ± 0.02 | 0.022 ± 0.0014 | 0.0245 ± 0.0078 | 0.032 ± 0.0028 | -0.0045 ± 0.015 | -0.0225 ± 0.025 | -0.0545 ± 0.019 | -0.0335 ± 0.016 | -0.015 ± 0.011 | -0.0165 ± 0.0078 | 0.016 ± 0.0014 | -0.017 ± 0.042 | -0.009 ± 0.028 | -0.0295 ± 0.0021 | 0.013 ± 0.0071 | 0.0605 ± 0.0092
2 | 3C:CCL2/MCP-1 | 0.0175 ± 0.0021 | 0.0235 ± 0.028 | 0.031 ± 0.034 | 0.0005 ± 0.0092 | -0.0115 ± 0.0078 | -0.0085 ± 0.06 | 0.0095 ± 0.0064 | -0.006 | 0.009 ± 0.0014 | -0.0165 ± 0.015 | -0.0035 ± 0.0021 | -0.007 ± 0.018 | 0.0015 ± 0.043 | 0.0045 ± 0.015 | 0.006 ± 0.034 | 0.01 ± 0.016 | -0.005 | 0.019 ± 0.011
3 | KF3CT:CCL2/MCP-1 | 0.029 ± 0.017 | -0.01 ± 0.014 | -0.0185 ± 0.005 | -0.0355 ± 0.0064 | -0.0255 ± 0.0078 | -0.038 ± 0.042 | -0.0045 ± 0.0092 | -0.008 ± 0.0099 | -0.0335 ± 0.015 | -0.015 ± 0.0014 | 0.0025 ± 0.005 | 0.035 ± 0.0085 | 0.0645 ± 0.013 | -0.026 | 0.0135 ± 0.016 | -0.0235 ± 0.069 | 0.01 ± 0.03 | 0.0795 ± 0.07
4 | CASM3C:IL-6 | -0.0605 ± 0.036 | -0.066 ± 0.02 | -0.0025 ± 0.035 | -0.0215 ± 0.06 | -0.004 ± 0.025 | 0.0865 ± 0.032 | 0.011 ± 0.051 | -0.045 ± 0.0057 | -0.051 ± 0.0085 | -0.042 ± 0.072 | -0.0155 ± 0.0064 | -0.0375 ± 0.018 | -0.0145 ± 0.028 | -0.0035 ± 0.0064 | -0.008 ± 0.0057 | 0.0145 ± 0.05 | -0.0105 ± 0.013 | 0.0315 ± 0.056
5 | 3C:CD141/Thrombomodulin | -0.002 ± 0.0085 | -0.009 ± 0.018 | -0.0345 ± 0.013 | -0.0115 ± 0.00071 | -0.0115 ± 0.0078 | 0.013 ± 0.016 | -0.0275 ± 0.026 | -0.0055 ± 0.036 | -0.041 ± 0.065 | -0.0855 ± 0.049 | -0.0095 ± 0.015 | 0.024 ± 0.011 | 0.187 ± 0.014 | -0.032 ± 0.078 | -0.0295 ± 0.022 | -0.0405 ± 0.029 | -0.028 ± 0.0014 | -0.01 ± 0.041
6 | KF3CT:CXCL9/MIG | -0.008 ± 0.0057 | -0.0015 ± 0.0092 | -0.0035 ± 0.023 | -0.0095 ± 0.0078 | 0 ± 0.0071 | -0.0225 ± 0.0092 | -0.0015 ± 0.00071 | -0.008 ± 0.0014 | -0.005 ± 0.0099 | 0.0205 ± 0.015 | 0.0025 ± 0.0035 | -0.002 ± 0.0042 | 0.0055 ± 0.0021 | -0.004 ± 0.011 | 0.0025 ± 0.0092 | 0.0075 ± 0.00071 | 0.0045 ± 0.00071 | -0.01 ± 0.025
7 | CASM3C:CD141/Thrombomodulin | 0.0085 ± 0.019 | -0.028 ± 0.057 | -0.002 ± 0.044 | -0.01 ± 0.0071 | -0.014 ± 0.0042 | 0.0245 ± 0.015 | -0.004 ± 0.011 | -0.057 ± 0.035 | -0.043 ± 0.025 | -0.0405 ± 0.1 | -0.008 ± 0.033 | -0.005 ± 0.018 | -0.038 ± 0.0042 | -0.01 ± 0.04 | -0.036 ± 0.052 | -0.014 | 0.0135 ± 0.0035 | 0.0065 ± 0.03
8 | lMphg:CD106/VCAM-1 | 0.015 ± 0.014 | 0.0515 ± 0.0092 | 0.0645 ± 0.026 | -0.013 ± 0.016 | -0.0455 ± 0.018 | -0.055 ± 0.0014 | 0 ± 0.0057 | -0.003 ± 0.0085 | -0.036 | -0.0835 ± 0.025 | 0.0115 ± 0.037 | 0.001 ± 0.014 | -0.009 ± 0.0057 | -0.0135 ± 0.0092 | -0.022 ± 0.023 | -0.011 ± 0.021 | -0.009 ± 0.04 | -0.039 ± 0.075
9 | HDF3CGF:CCL2/MCP-1 | 0.034 ± 0.0085 | 0.0305 ± 0.0035 | 0.029 ± 0.014 | 0.028 ± 0.011 | -0.005 ± 0.0014 | -0.0855 ± 0.056 | -0.0095 ± 0.018 | -0.005 ± 0.0057 | -0.0255 ± 0.0035 | -0.043 ± 0.024 | -0.0285 ± 0.016 | 0.027 | -0.0065 ± 0.025 | 0.0015 ± 0.029 | 0.003 ± 0.0085 | 0.0065 ± 0.0078 | -0.034 ± 0.017 | -0.018 ± 0.016
10 | MyoF:SRB | -0.005 ± 0.0099 | -0.0085 ± 0.012 | -0.0065 ± 0.022 | 0.002 ± 0.0042 | 0.0025 ± 0.0064 | 0.004 | -0.0055 ± 0.0092 | 0.0015 ± 0.0021 | 0.0005 ± 0.0035 | -0.015 ± 0.0057 | -0.0015 ± 0.0064 | -0.0085 ± 0.012 | -0.002 ± 0.0057 | -0.002 ± 0.0057 | -0.0035 ± 0.0064 | -0.0065 ± 0.015 | 0.016 ± 0.0014 | 0.0325 ± 0.0021
11 | HDF3CGF:TIMP-1 | 0.0335 ± 0.016 | -0.025 ± 0.038 | 0.012 ± 0.02 | -0.03 ± 0.0057 | -0.06 ± 0.018 | -0.0575 ± 0.044 | -0.0195 ± 0.005 | -0.0115 ± 0.033 | -0.018 ± 0.024 | -0.0695 ± 0.06 | -0.011 ± 0.03 | -0.0005 ± 0.005 | 0.0085 ± 0.018 | -0.019 ± 0.064 | -0.01 ± 0.11 | -0.047 ± 0.17 | -0.0035 ± 0.0035 | 0.047 ± 0.0085
12 | CASM3C:Serum Amyloid A | 0.0135 ± 0.0078 | 0.0445 ± 0.0078 | 0.073 ± 0.041 | -0.0065 ± 0.044 | -0.0225 ± 0.015 | 0.083 ± 0.055 | 0.033 ± 0.021 | -0.0125 ± 0.0021 | -0.031 ± 0.0085 | -0.0485 ± 0.066 | 0.014 ± 0.035 | 0.001 ± 0.064 | -0.009 ± 0.024 | -0.0045 ± 0.0078 | -0.0195 ± 0.0092 | -0.0495 ± 0.028 | -0.007 ± 0.031 | 0.0135 ± 0.076
13 | MyoF:MMP-1 | -0.036 ± 0.013 | -0.0325 ± 0.018 | 0.008 ± 0.02 | -0.036 ± 0.0085 | 0.007 ± 0.0085 | 0.0865 ± 0.04 | 0.0065 ± 0.047 | 0.0165 ± 0.019 | -0.0215 ± 0.021 | 0.0315 ± 0.0021 | -0.036 ± 0.013 | -0.0255 ± 0.025 | 0.025 ± 0.058 | -0.017 ± 0.041 | -0.044 ± 0.0099 | -0.007 ± 0.033 | -0.012 ± 0.013 | -0.0145 ± 0.025
14 | HDF3CGF:Collagen III | -0.102 ± 0.0035 | -0.143 ± 0.011 | -0.092 ± 0.037 | -0.119 ± 0.011 | -0.193 | -0.281 ± 0.029 | -0.0145 ± 0.074 | -0.114 ± 0.088 | -0.101 ± 0.0064 | -0.22 ± 0.096 | -0.008 ± 0.11 | 0.0535 ± 0.025 | 0.0555 ± 0.018 | -0.064 ± 0.055 | -0.076 ± 0.033 | -0.039 ± 0.061 | -0.063 ± 0.023 | -0.138 ± 0.028
15 | 3C:CD106/VCAM-1 | -0.03 ± 0.038 | 0.049 ± 0.024 | -0.0295 ± 0.012 | -0.0115 ± 0.016 | -0.0345 ± 0.005 | -0.054 ± 0.0042 | 0.006 ± 0.017 | -0.0165 ± 0.0078 | -0.0245 ± 0.022 | -0.0595 ± 0.036 | 0.0015 ± 0.00071 | -0.0045 ± 0.026 | 0.019 ± 0.018 | -0.021 ± 0.0057 | -0.0295 ± 0.026 | -0.025 ± 0.023 | -0.015 ± 0.014 | -0.0115 ± 0.0021
16 | CASM3C:LDLR | 0.002 ± 0.013 | -0.0385 ± 0.059 | 0.0025 ± 0.0092 | -0.0075 ± 0.0021 | -0.005 ± 0.0042 | 0.0505 ± 0.039 | -0.0055 ± 0.018 | -0.01 ± 0.0085 | -0.024 ± 0.023 | -0.034 ± 0.011 | -0.004 ± 0.017 | -0.0085 ± 0.0035 | -0.0075 ± 0.018 | 0.0005 ± 0.0021 | -0.001 ± 0.018 | 0.0095 ± 0.047 | -0.016 ± 0.021 | 0.026 ± 0.024

Source: the supplement of paper PMC10331698
